# Data published in US11053185B2, “Dendritic polyethylene glycol derivative, and preparation method and application thereof” (JENKEM TECHNOLOGY CO., LTD. (TIANJIN), priority 2017, dated 2021).
# Test: Comparison of solubility of derivatives in water
# Type: physicochemical
# Details: shaken vigorously every 5 minutes for 30 seconds until clear
# Description: Then the solution was shaken vigorously every 5 minutes for 30 seconds. After 30 minutes, the solution was turbid. Another 1.5 mL of water was added and the solution was shaken vigorously every 5 minutes for 30 seconds, and the solution became clear until 9 mL of water was totally added.
# 24.2 mg of the cholesterol derivative of the mEG7-OH prepared in Example 9 was dispersed in 50 mL of water, and 5 mL of the mixture was taken out and added with 1.5 mL of water. Then the solution was shaken vigorously every 5 minutes for 30 seconds. After 30 minutes, the solution became turbid. Another 5 mL of water was added and the solution was shaken vigorously every 5 minutes for 30 seconds until 25 mL of water was totally added. 5 mL of the solution was taken out from the diluted solution and operated similarly, and the solution became clear until 10 mL of water was added.
# (§1) 111.0 mg of the hexadecanol derivative of the ((mEG3)2-N—C3H6)2—N—C3H6—OH prepared in Example 8 was dispersed in 50 μL of water, and shaken vigorously every 5 minutes for 30 seconds. After 30 minutes, the solution became clear. Another 50 μL of water was added and the solution was shaken vigorously every 5 minutes for 30 seconds, and the solution was still clear until 1.025 mL of water was added.
# as §1, with “112.9” for “111.0”, “mEG7-OH” for “((mEG3)2-N—C3H6)2—N—C3H6—OH”, “9” for “8”, “was turbid.” for “became clear.”, “became” for “was still”, “250 μL” for “1.025 mL”
# After 30 minutes, the solution was clear. Another 50 μL of water was added and the solution was shaken vigorously every 5 minutes for 30 seconds, and the solution was still clear until 1.025 mL of water was added.
# After 30 minutes, the solution was turbid. Another 50 μL of water was added and the solution was shaken vigorously every 5 minutes for 30 seconds. After 30 minutes, the solution became clear.
Solubility in water,Solubility in water (listed as hexadecanol),Solubility in water (listed as menthol),Solubility in water (listed as cholesterol),SMILES
Less than 1 mg/ mg/100 g H2O,less than 1 mg/100 g H2O,,,"CCCCCCCCCCCCCCCCO [Hexadecanol, hexadecanol]"
Less than 100 mg/ mg/100 g H2O,,less than 100 mg/100 g H2O,,"CC1CCC(C(C)C)C(O)C1 (stereo not drawn) [Menthol, menthol]"
Less than 0.2 mg/ mg/100 g H2O,,,less than 0.2 mg/100 g H2O,"CC(C)CCC[C@@H](C)[C@H]1CC[C@H]2[C@@H]3CC=C4C[C@@H](O)CC[C@]4(C)[C@H]3CC[C@]12C [Cholesterol, cholesterol]"
